Measured values: patent US20230414715A1, “TRAIL COMPOUNDS FOR REDUCING CANCER TREAMENT SIDE EFFECTS” (BROWN UNIVERSITY, priority 2022, published 2023)

Columns and labels:
[1] = system: C57B1/6 mice; assay: Radiation pneumonitis after whole-thorax x-ray irradiation, H&E of lung, wild-type mice; format: in vivo, mouse
Description: However, before embarking on the planned experiment, we decided to perform a preliminary, short-term treatment feasibility experiment to ensure some mouse survival after 20 Gy of thoracic irradiation (FIG. 1B). The preliminary experiment was performed with WT and DR5-null mice that were irradiated with 20 Gy, and this was followed by either weekly doses of TIC10/ONC201 (100 mg/kg for total of two doses) or twice a week doses of TLY012 (10 mg/kg for total of four doses) for 2 weeks.
(§1) Animal studies were carried out at Brown University facilities with approval from Brown University IACUC. C57B1/6 mice (Taconic), mice with bi-allelic loss of TRAIL Death Receptor-(DR5-/-) in a C57B1/6 background, and mice with bi-allelic loss of TRAIL (TRAIL -/-) in a C57B1/6 background were given a single whole-thorax x-ray (Philips RT250) irradiation dose of 20 Gy with shielding of other organs. 8-15-week-old male and female mice of each genotype were used. […] Treatment was continued for two weeks, where TLY012 was administered twice a week and ONC201 was administered once a week. For each genetic background, two mice received a control PO, two mice received TLY012 IP, and two mice received ONC201 PO. Mice were weighed twice a week, and 13 days post-irradiation all mice were euthanized. Organs were harvested from the mice and 600 μL of blood was collected via cardiac puncture for serum cytokine analysis. Organs were preserved in 10% formalin then embedded in paraffin and sectioned at a distance of 5 μm. […] TRAIL-/- female mice were also subjected to a survival study with a single whole-thorax radiation doses of 15 Gy or 18 Gy treated with the same regimen of TLY012 or control (n=2/radiation dose/treatment) (FIG. 3B). In order to determine the lethal dose of radiation for C57B1/6 mice, female C57B1/6 mice were treated with a single dose of whole-thorax irradiation of 25 Gy in a survival study where they were treated with either TLY012 or remained control (n=6/treatment) (FIG. 3C).

[2] = system: TRAIL-/- mice; assay: Radiation pneumonitis after whole-thorax x-ray irradiation, H&E of lung, TRAIL-null mice; format: in vivo, mouse; settings: TRAIL-/- male or female mice, 20 Gy thoracic irradiation, two weeks treatment, FIG. 2A, B
Description: as §1, with “In order to determine the lethal dose of radiation for C57B1/6 mice, female C57B1/6 mice were treated with a single dose of whole-thorax irradiation of 25 Gy in a survival study where they were treated with either TLY012 or remained control (n=6/treatment) (FIG. 3C).” left out

[3] = system: serum cytokines; assay: Serum cytokine analysis (Luminex) of irradiated mice; format: in vivo, mouse; settings: treated versus control
Description: as §1
All mouse serum samples were analyzed by a custom R&D systems Murine Premixed Multi- Analyte Kit (R&D Systems, Inc., Minneapolis, MN). The panel was run on a Luminex 200 Instrument (Luminex Corporation, Austin, TX) according to the manufacturer's instructions. Murine serum levels of Angiopoietin-2, BAFF/BLyS/TNFSF13B, CCL2/JE/MCP-1, CCL3/MIP-1 alpha, CCL4/MIP-1 beta, CCL5/RANTES, CCL7/MCP-3/MARC, CCL11/Eotaxin, CCL12/MCP-5, CCL20/MIP-3 alpha, CCL21/6Ckine, CCL22/MDC, Chitinase 3-like 1, CXCL1/GRO alpha/KC/CINC-1, CXCL10/IP-10/CRG-2, CXCL12/S DF- 1 alpha, Dkk-1, FGF basic/FGF2/bFGF, GDF-15, GM-CSF, Granzyme B, IFN-gamma, IGF-I/IGF-1, IL-1 alpha/IL-1F1, IL-1 beta/IL-1F2, IL-2, IL-3, IL-4, IL-6, IL-7, IL-10, IL-13, IL-16, IL-17/IL-17A, IL-27, IL-33 M-CSF, MMP-3, MMP-8, MMP-12, Prolactin, TWEAK/TNFSF12, VEGF, and VEGFR2/KDR/Flk-1 were measured. Analyte values were reported in picograms per milliliter (pg/mL). […] Latent TGF-β was activated in samples using 1 N HCl and samples were neutralized with 1.2 N NaOH/0.5 M HEPES. Samples were assayed immediately after neutralization.

[4] = system: lung tissue in irradiated C57B1/6 mice; assay: Immunohistochemistry of irradiated lung tissue; format: in vivo, mouse
Excerpt: Paraffin embedded sections of tissue were deparaffinized in xylene and rehydrated through graded ethanol solutions to phosphate-buffered saline (PBS). Heat-induced antigen retrieval (in 0.01 M citrate buffer; pH 6.0), endogenous peroxidase blocking (3% H202), and blocking were done using a standard protocol. […] Slides were developed with diaminobenzidine substrate (Vector Laboratories SK-4100) and counterstained with hematoxylin (Richard Allen Scientific). Slides were scanned (Olympus VS200) and representative brightfield images were taken and analyzed with OlyVIA software.

[5] = system: duodenum, liver or heart; assay: H&E of duodenum, liver and heart of irradiated, treated mice; settings: 20 Gy irradiated mice, 2 weeks treatment
Description: as §1, with “In order to determine the lethal dose of radiation for C57B1/6 mice, female C57B1/6 mice were treated with a single dose of whole-thorax irradiation of 25 Gy in a survival study where they were treated with either TLY012 or remained control (n=6/treatment) (FIG. 3C).” left out

[6] = system: e0771 orthotopic breast tumors in C57B1/6 mice; assay: Orthotopic e0771 breast tumor model with 20 Gy whole-thorax irradiation
Description: C57B1/6 female mice (Taconic) were injected with 100,000 cells of murine breast cancer (e0771) in the right second mammary fat pad on day 0 of the experiment. […] Each group (n=3) also received a single whole-thorax x-ray irradiation dose of 20 Gy with shielding of other organs. One group (n=3) received no treatment and no radiation. The long axis and short axis of the tumors were measured using calipers and recorded twice a week. On day 18 all mice were euthanized at a humane endpoint, which was defined by 20% weight loss and/or a tumor volume of 2000 mm^3 (˜10% of body weight). Organs and tumors were harvested from the mice and 600 μL of blood was collected via cardiac puncture for serum cytokine analysis. Once tumors were extracted, they were weighed and measured to determine final volume and weight. Pulse oximeter readings were taken initially before radiation treatment and before sacrifice 9 days post-radiation (MouseSTAT Jr. Pulse Oximeter, Kent Scientific). When mice were under anesthesia the sensor of the MouseSTAT Jr. was placed on the hind right paw for 30 seconds. The highest and lowest values shown by the pulse oximeter during this time were recorded and then averaged together. The mean of all the averages per treatment group was then calculated.

[7] = irradiated rescued versus irradiated control lung tissues
[8] = normal or inflamed lung, treated versus irradiated control

How did the protection from pneumonitis ([1]; WT mice, 20 Gy thoracic irradiation, preliminary experiment, 2 weeks treatment, versus irradiated control, FIG. 1C) turn out when `Cc1ccccc1CN1C(=O)C2=C(CCN(Cc3ccccc3)C2)N2CCN=C12` [ONC201, reference compound] was run?
Its protection from pneumonitis is “qualitative evidence of protection from pneumonitis”.

And the “rescue from radiation-induced pneumonitis” value ([1]; irradiated C57B1/6 mice, FIG. 2)?
Its value is “could rescue mice from radiation-induced pneumonitis”.

What about the “rescue from radiation pneumonitis” value [2] of the same molecule?
Its value is “did not”.

What about the “FGF basic serum level” value [3] of the same molecule?
The value was “increase”.

What about the IGF1 serum level [3] of the same molecule?
The IGF1 serum level was “upregulated”.

And the NFkB [4, 7]?
Its NFkB is “no differences”.

What about the proliferation [4, 7] of the same molecule?
The proliferation was “no differences”.

And the “DNA double strand break marker gamma-H2AX” value [4, 8]?
The value was “no difference”.

What about the “T-cell infiltration (CD3-epsilon)” value [4, 8] of the same molecule?
Its value is “no difference”.

What about the collagen in lungs ([4]; rescued lungs versus irradiated control) of the same molecule?
Its collagen in lungs is “less collagen”.

What about the “toxicities in duodenum, liver or heart” value [5] of the same molecule?
Its value is “No obvious toxicities”.

And the “effect on anti-tumor efficacy of radiation (tumor weight and volume)” value ([6]; 20 Gy on day 9, treatment days 9, 12, 16, sacrifice day 18, FIG. 6B, C)?
Its value is “no evidence that ONC201, TLY012 or their combination reduced efficacy of treatment”.

And the “oxygen saturation (pulse oximetry)” value ([6]; 9 days post-radiation, versus irradiated mice without further treatment, FIG. 6D)?
Its value is “partially rescued”.

What about the “rescue from radiation induced pneumonitis” value ([6]; tumor-bearing mice, 20 Gy) of the same molecule?
Its value is “more potent by TLY012 than with ONC201”.
